target: T1, acetylcholine muscarinic M1 receptor (Homo sapiens, UniProt P11229); test: muscarinic FLIPR assay: potentiation of acetylcholine-stimulated intracellular Ca2+ in CHOnfat/hM1 cells; type: cell-based; conditions: 4 min preincubation, then EC20 acetylcholine (3 nM final), read-out: IP Value (inflection point)
T1 construct: expressed in transfected cells; host or cells: CHOnfat (CHO cells, Geneticin-selected)
T1 sequence (P11229 1-460): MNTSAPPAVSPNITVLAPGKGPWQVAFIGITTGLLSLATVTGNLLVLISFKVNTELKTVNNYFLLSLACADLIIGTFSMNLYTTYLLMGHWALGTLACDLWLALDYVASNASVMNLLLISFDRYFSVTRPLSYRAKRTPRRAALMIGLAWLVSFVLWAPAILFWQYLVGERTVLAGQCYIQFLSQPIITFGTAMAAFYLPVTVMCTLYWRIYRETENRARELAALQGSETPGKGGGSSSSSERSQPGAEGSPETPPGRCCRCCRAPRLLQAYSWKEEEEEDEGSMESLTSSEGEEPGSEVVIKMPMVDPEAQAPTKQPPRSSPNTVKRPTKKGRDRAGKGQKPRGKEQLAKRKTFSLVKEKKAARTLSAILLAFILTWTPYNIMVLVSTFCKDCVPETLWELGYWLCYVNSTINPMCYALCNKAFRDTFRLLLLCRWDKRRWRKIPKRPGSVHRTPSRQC
Description: The assay studies the effect of one or several concentrations of test compounds on basal or acetylcholine-stimulated Ca^2+ levels using FLIPR.
Compounds are prepared and subjected to a preincubation period of 4 min. Thereafter, a single EC20 concentration of acetylcholine is added to each well (3 nM final). The intracellular Ca^2+ level of each sample is measured and compared to an acetylcholine control to determine any modulatory activity.
Cells: CHOnfat/hM1, hM2, hM3 or hM4 cells are plated 24 hr before the assay at a density of 18,000 cells/well (100 μL) in a 384 well plate. CHOnfat/hM1 and CHOnfat/hM3 Growth Medium: 90% DMEM (Hi Glucose); 10% HI FBS; 2 mM L-glutamine; 0.1 mM NEAA; Pen-Strep; and 1 mg/ml Geneticin, are added. For M2Gqi5CHOnfat and M4Gqi5CHOnfat cells, an additional 600 μg/ml hygromycin is added.
Equipment: 384 well plate, 120 μL addition plate; 96-well Whatman 2 ml Uniplate Incubator, 37° C., 5% CO2; Skatron EMBLA-384 Plate Washer; Multimek Pipetting System; Genesis Freedom 200 System; Mosquito System; Temo Nanolitre Pipetting System; and FLIPR^384 Fluorometric Imaging Plate Reader System are used.
Buffers. Assay Buffer: Hanks Balanced Salt Solution, with 20 mM Hepes, 2.5 mM Probenecid (Sigma P-8761) first dissolved in 1N aqueous NaOH, 1% Bovine Serum Albumin (Sigma A-9647). Dye Loading Buffer: Assay Buffer plus 1% Fetal Bovine Serum and Fluo-4AM/Pluronic Acid Mixture. 2 mM Fluo-4AM ester stock in DMSO (Molecular Probes F-14202) Concentration of 2 μM in buffer for a final concentration of 1 μM in Assay. 20% Pluronic Acid Solution stock, with a concentration of 0.04% in Buffer, 0.02% in Assay.
65 μL of 2 mM Fluo-4AM are mixed with 130 μL of 20% Pluronic Acid. The resulting solution and 650 μL FBS is added to the assay buffer for a total volume of 65 mL. Positive Controls: 4-Br-A23187: 10 mM in DMSO; final concentration 10 μM. Acetylcholine: 10 mM in water, working stock at both 20 μM and 30 μM in assay buffer, final concentration of 10 μM. This is used to check the maximum stimulation of the CHOK1/hM1 cells. 20 μM (2×) acetylcholine is added in the preincubation part of the assay, and the 30 μM (3×) stock is added in the second part. (EC20)Acetylcholine: 10 mM in water, working stock of 9 nM (3×), and final concentration in assay is 3 nM. This is used after the preincubation with test compounds. Addition of the EC20 Acetylcholine to each well with a test compound will ascertain any modulator activity. 24 wells contain 3 nM Acetylcholine alone as a control.
Determining Activity of Putative Compounds:
Screening Plate Compounds are titrated in 96-well plates (columns 2-11), 100% DMSO, started at a concentration of 15 mM (150× stock concentration), and 3-fold serial dilutions using Genesis Freedom200 System. Four 96-well plates are combined into a 384-well plate using Mosquito Nanolitre Pipetting System by transferring 1 μl of serial diluted compounds to each well, and 1 mM acetylcholine (100× stock concentration) were added as a control. Using Temo, 49 μl assay buffer is added to each well of the 384-well plate right before assay.
In a 96-well Whatman 2 ml Uniplate, 9 nM Acetylcholine (3×) is pipetted into wells corresponding to the screening compounds and into control wells. The 30 μM acetylcholine control (3×) is added into control wells and the 3× agonist plate is transferred into a 384-well plate.
Cells are washed three times with 100 μL of buffer, leaving 30 μL of buffer in each well. Using Multimek, 30 μL of Dye Loading Buffer is added into each well and incubated at 37° C., 5% CO2 for up to one hr.
After 60 min, the cells are washed three times with 100 μL of buffer, leaving 30 μL of buffer in each well. The cell plate, screening plate, and agonist addition plates are placed on the platform in the FLIPR and the door is closed. A signal test to check background fluorescence and basal fluorescence signal is performed. Laser intensity is adjusted if necessary. […]

Compound | EC50 [nM]
O=C(O)c1cc(CN2CCN(c3cc4ccccc4cn3)CC2)c2ccccn2c1=O [Example 133] | 90
N#Cc1ccc(N2CCN(Cc3cc(C(=O)O)c(=O)n4ccccc34)CC2)cn1 [Example 147, 1-{[4-(6-cyanopyridin-3-yl)piperazin-1-yl]methyl}-4-oxo-4H-quinolizine-3-carboxylic acid] | 614
CS(=O)(=O)c1cc(N2CCN(Cc3cc(C(=O)O)c(=O)n4ccccc34)CC2)ccn1 [Example 154] | 1650
N#Cc1cc2cc(N3CCN(Cc4cc(C(=O)O)c(=O)n5ccccc45)CC3)ccc2o1 [Example 145, 1-{[4-(2-cyano-1-benzofuran-5-yl)piperazin-1-yl]methyl}-4-oxo-4H-quinolizine-3-carboxylic acid] | 91
O=C(O)c1cc(CN2CCN(c3ccc4ncsc4c3)CC2)c2ccccn2c1=O [Example 144] | 81
CN1CCN(Cc2cc(C(=O)O)c(=O)n3ccccc23)C(c2cccc(F)c2)C1=O (stereo not drawn) [Example 155, 1-{[2-(3-fluorophenyl)-4-methyl-3-oxopiperazin-1-yl]methyl}-4-oxo-4H-quinolizine-3-carboxylic acid] | 4900
Cn1cc(N2CCN(Cc3cc(C(=O)O)c(=O)n4ccccc34)CC2)cn1 [Example 113] | 408

The remaining molecules from weak to strong by EC50, led by results:

EC50 [nM] | Compound
6900 | O=C(O)c1cc(CN2CCOCC2)c2ccccn2c1=O [Example 179, 1-(morpholin-4-ylmethyl)-4-oxo-4H-quinolizine-3-carboxylic acid]
640 | CSc1cc(N2CCN(Cc3cc(C(=O)O)c(=O)n4ccccc34)CC2)ccn1 [Example 153, 1-({4-[2-(methylthio)pyridine-4-yl]piperazine-1-yl}methyl)-4-oxo-4H-quinolizine-3-carboxylic acid]
616 | N#Cc1ccc(N2CCN(Cc3cc(C(=O)O)c(=O)n4ccccc34)CC2)cc1 [Example 146, 1-{[4-(4-cyanophenyl)piperazin-1-yl]methyl}-4-oxo-4H-quinolizine-3-carboxylic acid]
380 | C=Cc1cc(N2CCN(Cc3cc(C(=O)O)c(=O)n4ccccc34)CC2)ccn1 [Example 148, 4-Oxo-1-{[4-(2-vinylpyridin-4-yl)piperazine-1-yl]methyl}-4H-quinolizine-3-carboxylic acid]
270 | O=C(O)c1cc(CN2CCN(c3ccc(C(F)(F)F)cc3)CC2)c2ccccn2c1=O [Example 1, 4-oxo-1-({4-[4-(trifluoromethyl)phenyl]piperazin-1-yl}methyl)-4H-quinolizine-3-carboxylic acid]
132 | O=C(O)c1cc(CN2CCN(c3ccc(Br)cc3)CC2)c2ccccn2c1=O [Example 61]
119 | O=C(O)c1cc(CN2CCN(c3ccccc3)C(=O)C2c2cccc(F)c2)c2ccccn2c1=O (stereo not drawn) [Example 160, 1-{[2-(3-fluorophenyl)-3-oxo-4-phenylpiperazin-1-yl]methyl}-4-oxo-4H-quinolizine-3-carboxylic acid]
71 | O=C(O)c1cc(CN2CCN(c3ccc4sccc4c3)CC2)c2ccccn2c1=O [Example 143]
